The text below walks through data of US5789431A, “Naphthoquinone antitumor compound and method” (The University of North Carolina at Chapel Hill, priority 1996, dated 1998).

The subject of one series is 786-0. Nature of the series: in vitro renal cancer cell growth inhibition (NCI screen).
In the next series the test system is LOX1MVI. Kind of series: in vitro melanoma cell growth inhibition (NCI screen).
For the next series, the system named is HCT-116. Nature of the series: in vitro colon cancer cell growth inhibition (NCI screen).
A further series concerns HL-60(TB). Nature of the series: in vitro leukemia cell growth inhibition (NCI screen).
The next series deals with UACC-62. Kind of series: in vitro melanoma cell growth inhibition (NCI screen).
For another series, the system named is LXFL 529. Kind of series: in vitro non-small cell lung cancer cell growth inhibition (NCI screen).
Another series concerns U 251. Nature of the series: in vitro CNS cancer cell growth inhibition (NCI screen).
The test system of another series is HCT-15. Kind of series: in vitro colon cancer cell growth inhibition (NCI screen).
A further series concerns human tumor cell lines. The format is cell-based. The settings on record: for GI50: Homo sapiens; for cytotoxicity against tumor cells (in words): cancer cell line panel.
For the next series, the system named is OVCAR-8. Nature of the series: in vitro ovarian cancer cell growth inhibition (NCI screen).
The test system of another series is HT 29. Kind of series: in vitro colon cancer cell growth inhibition (NCI screen).
Another series concerns DLD-1. The description is as above.
The next series deals with SF-268. Kind of series: in vitro CNS cancer cell growth inhibition (NCI screen).
Another series concerns CCRF-CEM. Kind of series: in vitro leukemia cell growth inhibition (NCI screen).
The subject of a further series is SW 620. Nature of the series: in vitro colon cancer cell growth inhibition (NCI screen).
In another series the test system is NCI-H460. Kind of series: in vitro non-small cell lung cancer cell growth inhibition (NCI screen).
A further series relates to MOLT-4. Kind of series: in vitro leukemia cell growth inhibition (NCI screen).
A further series concerns SR. Described as above.
The subject of the next series is K-562. Described as above.
In another series the test system is SF-539. Kind of series: in vitro CNS cancer cell growth inhibition (NCI screen).
The test system of the next series is NCI-H522. Kind of series: in vitro non-small cell lung cancer cell growth inhibition (NCI screen).
For a further series, the system named is KM 12. Kind of series: in vitro colon cancer cell growth inhibition (NCI screen).
A further series deals with NCI-H23. Nature of the series: in vitro non-small cell lung cancer cell growth inhibition (NCI screen).
The next series concerns SK-MEL-5. Kind of series: in vitro melanoma cell growth inhibition (NCI screen).
The subject of a further series is MALME-3M. The series is described as above.
Another series has as its system OVCAR-3. Kind of series: in vitro ovarian cancer cell growth inhibition (NCI screen).
The subject of another series is M19-MEL. Nature of the series: in vitro melanoma cell growth inhibition (NCI screen).
A further series deals with RXF-393. Kind of series: in vitro renal cancer cell growth inhibition (NCI screen).
For another series, the system named is NCI-H266. Nature of the series: in vitro non-small cell lung cancer cell growth inhibition (NCI screen).
Another series concerns SK-OV-3. Kind of series: in vitro ovarian cancer cell growth inhibition (NCI screen).
Another series relates to M14. Nature of the series: in vitro melanoma cell growth inhibition (NCI screen).
The next series relates to ACHN. Kind of series: in vitro renal cancer cell growth inhibition (NCI screen).
The next series concerns UACC-257. Nature of the series: in vitro melanoma cell growth inhibition (NCI screen).
A further series deals with SK-MEL-28. Described as above.
For a further series, the system named is XF-498. Kind of series: in vitro CNS cancer cell growth inhibition (NCI screen).
The next series has as its system UO-31. Nature of the series: in vitro renal cancer cell growth inhibition (NCI screen).
The next series has as its system SK-MEL-2. Nature of the series: in vitro melanoma cell growth inhibition (NCI screen).
The subject of another series is COLO-205. Kind of series: in vitro colon cancer cell growth inhibition (NCI screen).
The test system of the next series is TK-10. Kind of series: in vitro renal cancer cell growth inhibition (NCI screen).
For a further series, the system named is SNB-75. Nature of the series: in vitro CNS cancer cell growth inhibition (NCI screen).
[1] abbreviates: non-small cell lung, CNS, melanoma, colon, leukemia, small cell lung, and renal cancer cell lines, read-out: logGI50 values (range over cell lines) (converted).

Read-outs that look alike come from different tables or passages of the source.

Regarding `Cc1ccc(Cn2c(C)nc3c2C(=O)c2ccccc2C3=O)cc1` [Compound 17], the “cytotoxicity log GI50” value in the series on 786-0 was -5.66 M; with LOX1MVI, -6.22 M; in the series with HCT-116, -6.12 M; in the series on HL-60(TB), -5.72 M; in the series with UACC-62, -5.95 M; in the series on LXFL 529 it was -5.76 M. Besides, the “cytotoxicity log GI50” value is listed as -5.73 M in the series on U 251; -6.21 M with HCT-15; -5.52 M with OVCAR-8; -5.90 M in the series on HT 29; -5.91 M with DLD-1; -5.46 M with SF-268. The “cytotoxicity log GI50” value with CCRF-CEM is given as -5.70 M; with SW 620, -5.48 M; in the series with NCI-H460 it was -6.41 M; with MOLT-4, -6.19 M; with SR, -6.48 M; in the series on K-562 it was -6.08 M. In addition, the “cytotoxicity log GI50” value in the series with SF-539 was -5.88 M; with NCI-H522, -5.50 M. Also, the GI50 in the series with human tumor cell lines (setting [1]) is 1 to 10 µM. Besides, the “cytotoxicity against tumor cells (in words)” value in the series with human tumor cell lines is given as “highly active against many of the cancer cell types tested”.

On to `COc1ccc(Cn2c(C)nc3c2C(=O)c2ccccc2C3=O)cc1` [Compound 18], for which the “cytotoxicity log GI50” value with KM 12 is reported as -5.27 M; in the series with 786-0, -5.27 M; with LOX1MVI it was -5.60 M; with HCT-116, -5.43 M; with HL-60(TB), -5.38 M; in the series on UACC-62, -5.34 M. The “cytotoxicity log GI50” value is -5.37 M in the series with LXFL 529; -5.20 M with U 251; -5.76 M in the series with HCT-15; -5.31 M in the series with HT 29; -5.33 M in the series on DLD-1; -5.35 M in the series with SF-268. Besides, the “cytotoxicity log GI50” value in the series with CCRF-CEM is on record as -5.39 M; in the series with NCI-H460 it was -5.62 M; in the series with MOLT-4, -5.59 M; in the series with SR, -5.84 M; with K-562 it was -5.49 M; with SF-539, -5.42 M. The “cytotoxicity log GI50” value in the series with NCI-H522 is given as -5.22 M. For the same compound, the GI50 with human tumor cell lines (setting [1]) was 1 to 10 µM.

For `Cc1nc2c(n1Cc1ccc(F)cc1)C(=O)c1ccccc1C2=O` [Compound 19], the “cytotoxicity log GI50” value was -4.88 M in the series with NCI-H23; -4.88 M in the series on 786-0; -5.14 M in the series with LOX1MVI; -5.16 M in the series with HCT-116; -5.26 M in the series on HL-60(TB); -5.28 M in the series on UACC-62. For the same compound, the “cytotoxicity log GI50” value with LXFL 529 is -4.87 M; with U 251, -5.18 M; in the series on HCT-15, -5.37 M; with SK-MEL-5, -4.99 M; with HT 29, -5.03 M; in the series on MALME-3M, -5.05 M. In addition, the “cytotoxicity log GI50” value in the series with SF-268 is listed as -5.34 M; in the series on CCRF-CEM, -4.98 M; with NCI-H460, -5.39 M; in the series on MOLT-4, -5.27 M; in the series on SR, -5.37 M; in the series on OVCAR-3, -4.82 M. Moreover, the “cytotoxicity log GI50” value with M19-MEL is on record as -5.44 M; in the series on RXF-393, -4.83 M; in the series with K-562, -5.25 M; with SF-539, -5.16 M; with NCI-H522, -4.97 M. Further, in the series on human tumor cell lines (setting [1]), the GI50 was 1 to 10 µM.

With `CCn1c(CCl)nc2c1C(=O)c1ccccc1C2=O` [Compound 22], the “cytotoxicity log GI50” value with UACC-62 is -5.89 M; with SK-MEL-5, -6.38 M; in the series with NCI-H266, -6.65 M; in the series with MALME-3M, -5.98 M; in the series with CCRF-CEM, -6.76 M; in the series on MOLT-4 it was -6.45 M. Besides, the figures for the “cytotoxicity log GI50” value with SR, in the series on NCI-H522 and in the series with SK-OV-3 were -6.40 M, -6.53 M and -6.29 M, respectively. Besides, the GI50 in the series on human tumor cell lines (cancer cells, printed as GI50, log scale values, read-out: GI50 values) was 0.158 to 1 µM. Further, the “cytotoxicity against tumor cells (in words)” value with human tumor cell lines was “highly active against many of the cancer cell types tested”.

On to `CCn1c(-c2ccc(F)cc2)nc2c1C(=O)c1ccccc1C2=O` [Compound 26], for which the GI50 in the series on human tumor cell lines (cancer cell panel, general / most cell lines, read-out: logGI50 values in the cancer cell line panel (converted)) is about 10 µM. Also, the “cytotoxicity log GI50” value is on record as -4.35 M with MALME-3M; -4.15 M in the series on M14; -4.47 M in the series on OVCAR-3; -4.27 M with RXF-393; -4.68 M with SK-OV-3.

On to `CC(=O)NC1=C(NCc2ccc(Cl)cc2)C(=O)c2ccccc2C1=O` [Compound 42], for which the “cytotoxicity log GI50” value in the series on ACHN is on record as -5.74 M; with HCT-116, -5.51 M; with HL-60(TB), -5.86 M; in the series on UACC-257, -5.21 M; with UACC-62 it was -5.58 M; in the series on SK-MEL-28, -5.26 M. Moreover, the “cytotoxicity log GI50” value with HCT-15 was -5.25 M; in the series with SK-MEL-5 it was -5.26 M; in the series with XF-498 it was -5.84 M; in the series on MOLT-4 it was -5.62 M; in the series on UO-31, -5.29 M; with M19-MEL it was -5.28 M. Further, the “cytotoxicity log GI50” value with RXF-393 is -5.37 M; in the series with K-562, -5.61 M; in the series on SF-539, -5.36 M; in the series with NCI-H522 it was -6.01 M; in the series on SK-MEL-2 it was -5.25 M; in the series on COLO-205, -5.27 M.

On to `CCC(c1ccccc1F)c1nc2c(n1CC)C(=O)c1ccccc1C2=O` (stereo not shown) [Compound 64], for which the “cytotoxicity log GI50” value in the series with TK-10 is -5.49 M; in the series on U 251 it was -5.07 M; with MOLT-4, -4.62 M; with SNB-75, -4.60 M; with RXF-393 it was -5.53 M.
